Patent US8088936B2, “Leukotriene B4 inhibitors” (Hoffman-La Roche Inc., priority 2009, dated 2012)

Test system: Human leukemia HL-60 cells endogenously expressing BLT1 and BLT2 receptors
Experiment: Ca2+ flux assay for LTB4 antagonist assay (HL-60 FLIPR)
Assay type: cell-based
Conditions: retinoic acid induced HL-60 cells, inhibition of LTB4-induced Ca2+ flux, 30 min preincubation; read-out: LTB4 antagonism (HL-60 FLIPR)
Method: Assay of Compounds for Inhibition of LTB4 Activity
Ca^2+Flux Assay for LTB4 Antagonist Assay
Human leukemia HL-60 cells endogenously expressing BLT1 and BLT2 receptors were cultured in RPMI-1640 medium supplemented with 20% fetal bovine serum, 2 mM glutamine, 100 U/ml penicillin and 100 ug/ml streptomycin.
Seventy two hours prior to experiment cells are counted using ViaCount reagent, centrifuged and resuspended at 2.0×10^5 cells/ml density with the complete growth media containing 1 μM Retinoic Acid (Sigma).
On a day of the experiment loading buffer (Calcium-3 Assay Kit, Molecular Devices) was prepared by dissolving the contents of one vial (Express Kit) into 500 ml Hank's Balanced Salt Solution containing 20 mM HEPES and 5 mM probenecid. Equal volume of the loading buffer was mixed with the replacement buffer (Hank's Balanced Salt Solution containing 20 mM HEPES, 0.05% BSA and 5 mM probenecid). Retinoic Acid induced HL-60 cells were counted using ViaCount reagent, centrifuged and resuspended at 2.0×10^6 cells/ml density with the loading buffer/replacement buffer, dispensed into 384 well black/clear microplates (Falcon) (25 μl/well) and placed in a 37° C./5% CO2 incubator for 1 hour.
During the incubation, test compounds were prepared at 6× the desired concentration in HBSS/20 mM HEPES/0.05% BSA as well as LTB4 (Biomol) was prepared at 2.2× concentration in HBSS/20 mM HEPES/0.5% BSA buffer.
After the incubation, both the cell and compound plates were brought to the FLIPR and 5 μl of the diluted compounds were transferred to the cell plates by the FLIPR. Plates were then incubated for 30 min at room temperature. After the ½ hour incubation, plates were returned to the FLIPR and 25 μl of 2.2×LTB4 was added to the cell plates. During the assay, fluorescence readings were taken simultaneously from all 384 wells of the cell plate every 1.5 seconds. Five readings were taken to establish a stable baseline, then 25 μl (LTB4) of sample was rapidly and simultaneously added to each well of the cell plate. The fluorescence was continuously monitored before, during and after sample addition for a total elapsed time of 100 seconds. Responses (increase in peak fluorescence) in each well following agonist addition was determined. The initial fluorescence reading from each well, prior to ligand stimulation, was used a zero baseline value for the data from that well. The responses are expressed as % inhibition of the neutral control (neural control: wells that received buffer plus DMSO but no test compound).

IC50	Compound
1.47 nM	COCc1cc(OCCCCCCc2cccc(OCCCC(=O)O)c2CCC(=O)O)cc(-c2cccc(F)c2)c1 [Example 14, 4-{2-(2-Carboxy-ethyl)-3-[6-(3′-fluoro-5-methoxymethyl-biphenyl-3-yloxy)-hexyl]-phenoxy}-butyric acid]
1.11 nM	CCOc1cc(OCCCCCCc2cccc(OCCCC(=O)O)c2CCC(=O)O)cc(-c2ccc3c(c2)OCCO3)c1 [Example 46, 4-[2-(2-Carboxy-ethyl)-3-{6-[3-(2,3-dihydro-benzo[1,4]dioxin-6-yl)-5-ethoxy-phenoxy]-hexyl}-phenoxy]-butyric acid]
3.1 nM	O=C(O)CCCOc1cccc(CCCCCCOc2cc(CO)cc(-c3ccc4c(c3)OCO4)c2)c1CCC(=O)O [Example 1, 4-[3-[6-(3-Benzo[1,3]dioxol-5-yl-5-hydroxymethyl-phenoxy)-hexyl]-2-(2-carboxy-ethyl)-phenoxy]-butyric acid]
11.9 nM	CCOCc1cc(OCCCCCCc2cccc(OCCCC(=O)O)c2CCC(=O)O)cc(-c2ccc(F)cc2)c1 [Example 26, 4-{2-(2-Carboxy-ethyl)-3-[6-(5-ethoxymethyl-4′-fluoro-biphenyl-3-yloxy)-hexyl]-phenoxy}-butyric acid]
0.1 nM	CN(C)Cc1cc(OCCCCCCc2cccc(OCCCC(=O)O)c2CCC(=O)O)cc(-c2ccc3c(c2)OCO3)c1 [Example 30, 4-[3-[6-(3-Benzo[1,3]dioxol-5-yl-5-dimethylaminomethyl-phenoxy)-hexyl]-2-(2-carboxy-ethyl)-phenoxy]-butyric acid]
6.69 nM	CCOc1cc(OCCCCCCc2cccc(OCCCC(=O)O)c2CCC(=O)O)cc(-c2ccc3cc[nH]c3c2)c1 [Example 55, 4-[2-(2-Carboxy-ethyl)-3-{6-[3-ethoxy-5-(1H-indol-6-yl)-phenoxy]-hexyl}-phenoxy]-butyric acid]
0.11 nM	CN(C)Cc1cc(OCCCCCCc2cccc(OCCCC(=O)O)c2CCC(=O)O)cc(-c2ccc(F)cc2)c1 [Example 33, 4-{2-(2-Carboxy-ethyl)-3-[6-(5-dimethylaminomethyl-4′-fluoro-biphenyl-3-yloxy)-hexyl]-phenoxy}-butyric acid]
30.2 nM	COCc1cc(OCCCCCCc2cccc(OCCCC(=O)O)c2CCC(=O)O)cc(-c2ccc3[nH]ccc3c2)c1 [Example 23, 4-[2-(2-Carboxy-ethyl)-3-{6-[3-(1H-indol-5-yl)-5-methoxymethyl-phenoxy]-hexyl}-phenoxy]-butyric acid]
0.31 nM	CC(C)C(=O)c1cc(OCCCCCCc2cccc(OCCCC(=O)O)c2CCC(=O)O)cc(-c2ccc3c(c2)OCO3)c1 [Example 70, 4-[3-[6-(3-Benzo[1,3]dioxol-5-yl-5-isobutyryl-phenoxy)-hexyl]-2-(2-carboxy-ethyl)-phenoxy]-butyric acid]
29.6 nM	O=C(O)CCCOc1cccc(CCCCCCOc2cc(CO)cc(-c3ccc(F)cc3)c2)c1CCC(=O)O [Example 4, 4-{2-(2-Carboxy-ethyl)-3-[6-(4′-fluoro-5-hydroxymethyl-biphenyl-3-yloxy)-hexyl]-phenoxy}-butyric acid]
13.4 nM	COCc1cc(OCCCCCCc2cccc(OCCCC(=O)O)c2CCC(=O)O)cc(-c2cccc(Cl)c2)c1 [Example 18, 4-{2-(2-Carboxy-ethyl)-3-[6-(3′-chloro-5-methoxymethyl-biphenyl-3-yloxy)-hexyl]-phenoxy}-butyric acid]
0.32 nM	CCOc1cc(OCCCCCCc2cccc(OCCCC(=O)O)c2CCC(=O)O)cc(-c2ccc3scnc3c2)c1 [Example 56, 4-[3-{6-[3-Benzothiazol-5-yl-5-ethoxy-phenoxy]-hexyl}-2-(2-carboxy-ethyl)-phenoxy]-butyric acid]
0.4 nM	CCC(=O)c1cc(OCCCCCCc2cccc(OCCCC(=O)O)c2CCC(=O)O)cc(-c2ccc3c(c2)OCO3)c1 [Example 71, 4-[3-[6-(3-Benzo[1,3]dioxol-5-yl-5-propionyl-phenoxy)-hexyl]-2-(2-carboxy-ethyl)-phenoxy]-butyric acid]
3.33 nM	CC(=O)c1cc(OCCCCCCc2cccc(OCCCC(=O)O)c2CCC(=O)O)cc(-c2ccccc2)c1 [Example 66, 4-[3-[6-(5-Acetyl-biphenyl-3-yloxy)-hexyl]-2-(2-carboxy-ethyl)-phenoxy]-butyric acid]
74.6 nM	O=C(O)CCCOc1cccc(CCCCCCOc2cc(OCc3ccccc3)cc(-c3ccccc3)c2)c1CCC(=O)O [Example 58, 4-[3-[6-(5-Benzyloxy-biphenyl-3-yloxy)-hexyl]-2-(2-carboxy-ethyl)-phenoxy]-butyric acid]
23 nM	N#CCc1cc(OCCCCCCc2cccc(OCCCC(=O)O)c2CCC(=O)O)cc(-c2ccccc2)c1 [Example 42, 4-{2-(2-Carboxy-ethyl)-3-[6-(5-cyanomethyl-biphenyl-3-yloxy)-hexyl]-phenoxy}-butyric acid]
16 nM	CCOCc1cc(OCCCCCCc2cccc(OCCCC(=O)O)c2CCC(=O)O)cc(-c2ccc(S(C)(=O)=O)cc2)c1 [Example 29, 4-[2-(2-Carboxy-ethyl)-3-[6-(5-ethoxymethyl-4′-methanesulfonyl-biphenyl-3-yloxy)-hexyl]-phenoxy]-butyric acid]
7.98 nM	O=C(O)CCCOc1cccc(CCCCCCOc2cc(OCC3CCCC3)cc(-c3ccsc3)c2)c1CCC(=O)O [Example 62, 4-[2-(2-Carboxy-ethyl)-3-[6-(3-cyclopentylmethoxy-5-thiophen-3-yl-phenoxy)-hexyl]-phenoxy]-butyric acid]
5.1 nM	CC(=O)c1cc(OCCCCCCc2cccc(OCCCC(=O)O)c2CCC(=O)O)cc(-c2cccc(F)c2)c1 [Example 67, 4-[3-[6-(5-Acetyl-3′-fluoro-biphenyl-3-yloxy)-hexyl]-2-(2-carboxy-ethyl)-phenoxy]-butyric acid]
8.27 nM	CCOc1cc(OCCCCCCc2cccc(OCCCC(=O)O)c2CCC(=O)O)cc(-c2ccc(F)c(F)c2)c1 [Example 50, 4-[2-(2-Carboxy-ethyl)-3-[6-(3′,4′-difluoro-5-ethoxy-biphenyl-3-yloxy)-hexyl]-phenoxy]-butyric acid]
34.2 nM	CCOc1cc(OCCCCCCc2cccc(OCCCC(=O)O)c2CCC(=O)O)cc(-c2ccc3[nH]ccc3c2)c1 [Example 54, 4-[2-(2-Carboxy-ethyl)-3-{6-[3-ethoxy-5-(1H-indol-5-yl)-phenoxy]-hexyl}-phenoxy]-butyric acid]
2.52 nM	COCc1cc(OCCCCCCc2cccc(OCCCC(=O)O)c2CCC(=O)O)cc(-c2ccc(F)cc2)c1 [Example 10, 4-{2-(2-Carboxy-ethyl)-3-[6-(4′-fluoro-5-methoxymethyl-biphenyl-3-yloxy)-hexyl]-phenoxy}-butyric acid]
5.98 nM	COCc1cc(OCCCCCCc2cccc(OCCCC(=O)O)c2CCC(=O)O)cc(-c2ccccc2F)c1 [Example 15, 4-{2-(2-Carboxy-ethyl)-3-[6-(2′-fluoro-5-methoxymethyl-biphenyl-3-yloxy)-hexyl]-phenoxy}-butyric acid]
0.37 nM	CN(C)Cc1cc(OCCCCCCc2cccc(OCCCC(=O)O)c2CCC(=O)O)cc(-c2ccc(C(F)(F)F)cc2)c1 [Example 37, 4-{2-(2-Carboxy-ethyl)-3-[6-(5-dimethylaminomethyl-4′-trifluoromethyl-biphenyl-3-yloxy)-hexyl]phenoxy}-butyric acid]
7.39 nM	O=C(O)CCCOc1cccc(CCCCCCOc2cc(CO)cc(-c3ccc4c(c3)OCCO4)c2)c1CCC(=O)O [Example 6, 4-(2-(2-Carboxy-ethyl)-3-{6-[3-(2,3-dihydro-benzo[1,4]dioxin-6-yl)-5-hydroxymethylphenoxy]-hexyl}-phenoxy)-butyric acid]
83.2 nM	CS(=O)(=O)c1ccc(-c2cc(CO)cc(OCCCCCCc3cccc(OCCCC(=O)O)c3CCC(=O)O)c2)cc1 [Example 7, 4-[2-(2-Carboxy-ethyl)-3-[6-(5-hydroxymethyl-4′-methanesulfonyl-biphenyl-3-yloxy)-hexyl]-phenoxy]-butyric acid]
15.1 nM	COCc1cc(OCCCCCCc2cccc(OCCCC(=O)O)c2CCC(=O)O)cc(-c2ccc(OC(F)(F)F)cc2)c1 [Example 20, 4-{2-(2-Carboxy-ethyl)-3-[6-(5-methoxymethyl-4′-trifluoromethoxy-biphenyl-3-yloxy)-hexyl]-phenoxy}-butyric acid]
6.05 nM	CCOc1cc(OCCCCCCc2cccc(OCCCC(=O)O)c2CCC(=O)O)cc(-c2ccc(Cl)cc2)c1 [Example 49, 4-[2-(2-Carboxy-ethyl)-3-[6-(4′-chloro-5-ethoxy-biphenyl-3-yloxy)-hexyl]-phenoxy]-butyric acid]
